Laboratory results from patent US7491827B2, “Aryl sulfonamides useful as inhibitors of chemokine receptor activity” (Millennium Pharmaceuticals, Inc., priority 2003, dated 2009).
Read-outs that look alike come from different tables or passages of the source.

Target: T1, cloned human CCR8 receptor stably expressed in L1.2 cells (Homo sapiens, UniProt P51685)
T1 construct: expressed in transfected cells
Experiment: whole cell binding screen: inhibition of biotinylated human I309 binding to CCR8 (FMAT 8100 HTS)
Conditions: biotinylated human I-309, 10 point concentration response starting at 10 μM
Procedure, shortened: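 Ten-point dilutions, top 10 μM final, were tested for displacing biotin-I309 from hCCR8-transfected L1.2 cells in HEPES-buffered HBSS with BSA and sodium azide, mixing 0.5 h before FMAT 8100 detection. Signals converted to percent inhibition against untreated wells and a 100 nM excess unlabeled I309 control.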

[1] = L1.2/hCCR8 cells, read-out: Ki of compounds to inhibit I-309 binding to CCR8

T1 sequence (P51685 whole entry): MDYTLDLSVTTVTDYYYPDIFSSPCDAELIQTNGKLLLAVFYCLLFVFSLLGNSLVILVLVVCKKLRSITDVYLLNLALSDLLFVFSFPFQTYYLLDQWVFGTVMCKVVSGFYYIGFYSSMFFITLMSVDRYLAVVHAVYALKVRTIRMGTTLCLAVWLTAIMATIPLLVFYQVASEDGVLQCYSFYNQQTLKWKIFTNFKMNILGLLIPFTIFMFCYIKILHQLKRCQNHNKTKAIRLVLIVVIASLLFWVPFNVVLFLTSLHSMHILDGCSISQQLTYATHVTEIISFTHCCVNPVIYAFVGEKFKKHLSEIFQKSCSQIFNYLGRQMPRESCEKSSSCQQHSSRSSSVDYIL

Ki [1] [µM] | Ki (Ki of compounds to inhibit I-309 binding to CCR8, L1.2/hCCR8 cells) [µM] | SMILES
< 0.5 | – | CCOC(=O)N1CCC(NS(=O)(=O)c2ccc(CNCCc3ccccc3)c3ccccc23)CC1 [Compound G-24, 4-[4-(Phenethylamino-methyl)-naphthalene-1-sulfonylamino]-piperidine-1-carboxylic acid ethyl ester]
< 30 | – | CCOC(=O)N1CCC(NS(=O)(=O)c2ccc(CNC3CCN(C)CC3)c3ccccc23)CC1 [Compound G-25, 4-{4-[(1-Methyl-piperidin-4-ylamino)-methyl]-naphthalene-1-sulfonylamino}-piperidine-1-carboxylic acid ethyl ester]
< 0.5 | – | CCOC(=O)N1CCC(NS(=O)(=O)c2ccc(CNCC3CCCCC3)c3ccccc23)CC1 [Compound G-27, 4-{4-[(Cyclohexylmethyl-amino)-methyl]-naphthalene-1-sulfonylamino}-piperidine-1-carboxylic acid ethyl ester]
< 0.5 | – | O=S(=O)(NC1CCCCC1)c1ccc(CNC2CCCCC2)c2ccccc12 [Compound G-31, 4-Cyclohexylaminomethyl-naphthalene-1-sulfonic acid cyclohexylamide]
< 0.5 | – | CCOC(=O)N1CCC(NS(=O)(=O)c2ccc(CNCc3ccccc3)c3ccccc23)CC1 [Compound G-32, 4-[4-(Benzylamino-methyl)-naphthalene-1-sulfonylamino]-piperidine-1-carboxylic acid ethyl ester]
< 0.5 | – | COc1ccc(NS(=O)(=O)c2cccc3c(NC(=O)c4ccccc4)cccc23)cc1 [Compound H-1, N-[5-(4-Methoxy-phenylsulfamoyl)-naphthalen-1-yl]-benzamide]
< 30 | – | CCc1ccc(NS(=O)(=O)c2cccc3c(NC(=O)c4ccccc4)cccc23)cc1 [Compound H-2, N-[5-(4-Ethyl-phenylsulfamoyl)-naphthalen-1-yl]-benzamide]
< 30 | – | O=C(Nc1cccc2c(S(=O)(=O)Nc3ccc(F)cc3)cccc12)c1ccccc1 [Compound H-4, N-[5-(4-Fluoro-phenylsulfamoyl)-naphthalen-1-yl]-benzamide]
< 0.5 | – | O=C(Nc1cccc2c(S(=O)(=O)NC3CCCCC3)cccc12)c1ccccc1 [Compound H-5, N-(5-Cyclohexylsulfamoyl-naphthalen-1-yl)-benzamide]
– | < 0.5 | CCOC(=O)N1CCC(NS(=O)(=O)c2cccc3c(NC(=O)c4ccccc4)cccc23)CC1 [Compound H-6, 4-(5-Benzoylamino-naphthalene-1-sulfonylamino)-piperidine-1-carboxylic acid ethylester]
< 0.5 | – | CCOC(=O)N1CCC(NS(=O)(=O)c2cccc3c(NC(=O)C4CCCCC4)cccc23)CC1 [Compound H-7, 4-[5-(Cyclohexanecarbonyl-amino)-naphthalene-1-sulfonylamino]-piperidine-1-carboxylic acid ethyl ester]
< 0.5 | – | CCOC(=O)N1CCC(NS(=O)(=O)c2cccc3c(NC(=O)c4ccco4)cccc23)CC1 [Compound H-8, 4-{5-[(Furan-2-carbonyl)-amino]-naphthalene-1-sulfonylamino}-piperidine-1-carboxylic acid ethyl ester]
< 1 | – | CCOC(=O)N1CCC(NS(=O)(=O)c2cccc3c(NC(=O)c4cccs4)cccc23)CC1 [Compound H-9, 4-15-[(Thiophene-2-carbonyl)-amino]-naphthalene-4-sulfonylamino-4-piperidine-1-carboxylic acid ethyl ester]
< 0.5 | – | O=C(Nc1cccc2c(S(=O)(=O)NC3CCN(C(=O)N4CCOCC4)CC3)cccc12)c1ccccc1 [Compound H-10]
< 0.5 | – | Cc1ccccc1C(=O)Nc1cccc2c(S(=O)(=O)NC3CCN(C(=O)N4CCOCC4)CC3)cccc12 [Compound H-11, 2-Methyl-N-{5-[1-(morpholine-4-carbonyl)-piperidin-4-ylsulfamoyl]-naphthalen-1-yl}-benzamide]
< 1 | – | CCOC(=O)N1CCC(NS(=O)(=O)c2cccc3c(NC(=O)c4ccccc4C)cccc23)CC1 [Compound H-12, 4-[5-(2-Methyl-benzoylamino)-naphthalene-1-sulfonylamino]-piperidine-1-carboxylic acid ethyl ester]
< 30 | – | CCOC(=O)N1CCC(NS(=O)(=O)c2cccc3c(NC(=O)c4cccc(C)c4)cccc23)CC1 [Compound H-13, 4-[5-(3-Methyl-benzoylamino)-naphthalene-1-sulfonylamino]-piperidine-1-carboxylic acid ethyl ester]
< 0.5 | – | CCN1CCC(NS(=O)(=O)c2cccc3c(NC(=O)c4ccccc4C)cccc23)CC1 [Compound H-14, N-[5-(1-Ethyl-piperidin-4-ylsulfamoyl)-naphthalen-1-yl]-2-methyl-benzamide]
< 1 | – | CCOC(=O)N1CCC(NS(=O)(=O)c2cccc3c(NC(=O)c4ccc(C)cc4)cccc23)CC1 [Compound H-15, 4-[5-(4-Methyl-benzoylamino)-naphthalene-1-sulfonylamino]-piperidine-1-carboxylic acid ethyl ester]
< 0.5 | – | CCOC(=O)N1CCC(NS(=O)(=O)c2cccc3c(NC(=O)c4ccc(C)s4)cccc23)CC1 [Compound H-16, 4-{5-[(5-Methyl-thiophene-2-carbonyl)-amino]-naphthalene-1-sulfonylamino}-piperidine-1-carboxylic acid ethyl ester]
< 1 | – | CCOC(=O)N1CCC(NS(=O)(=O)c2cccc3c(NC(=O)N4CCOCC4)cccc23)CC1 [Compound H-17, 4-{5-[(Morpholine-4-carbonyl)-amino]-naphthalene-1-sulfonylamino}-piperidine-1-carboxylic acid ethyl ester]
< 0.5 | – | CCOC(=O)N1CCC(NS(=O)(=O)c2cccc3c(NC(=O)c4cc5ccccc5s4)cccc23)CC1 [Compound H-18, 4-{5-[(Benzo[b]thiophene-2-carbonyl)-amino]-naphthalene-1-suffonylamino}-piperidine-1-carboxylic acid ethyl ester]
< 30 | – | CCOC(=O)c1ccc(NS(=O)(=O)c2cccc3c(NC(=O)c4ccccc4C)cccc23)cc1 [Compound H-19, 4-[5-(2-Methyl-benzoylamino)-naphthalene-1-sulfonylamino]-benzoic acid ethyl ester]
< 1 | – | CCOC(=O)N1CCC(NS(=O)(=O)c2cccc3c(NC(=O)c4cc(C)oc4C)cccc23)CC1 [Compound H-20, 4-{5-[(2,5-Dimethyl-furan-3-carbonyl)-amino]-naphthalene-1-suffonylamino}-piperidine-1-carboxylic acid ethyl ester]
< 1 | – | Cc1ccccc1C(=O)Nc1cccc2c(S(=O)(=O)Nc3ccc(Cl)cc3)cccc12 [Compound H-21, N-[5-(4-Chloro-phenylsulfamoyl)-naphthalen-1-yl]-2-methyl-benzamide]
< 1 | – | CCOC(=O)N1CCC(NS(=O)(=O)c2cccc3c(NC(=O)C4CCCCC4)c(C)ccc23)CC1 [Compound H-22, 4-[5-(Cyclohexanecarbonyl-amino)-6-methyl-naphthalene-1-sulfonylamino]-piperidine-1-carboxylic acid ethyl ester]
< 1 | – | CCOC(=O)N1CCC(NS(=O)(=O)c2cccc3c(C(=O)NC4CCCCC4)cccc23)CC1 [Compound H-25, 4-(5-Cyclohexylcarbamoyl-naphthalene-1-suffonylamino)-piperidine-1-carboxylic acid ethyl ester]
